Measured values: PMC6540747 (The AAPS journal, 2017)

How the values were obtained:
liver MPS cells = assay: Liver MPS intracellular accumulation; assay type: in vitro ADME, human; conditions: 72h after dosing; Gut / Liver and Liver only arms
human hepacyte cultures = conditions: human hepatocyte cultures; cited from earlier work
[1] = system: gut MPS and liver MPS on-platform; assay: Drug and metabolite concentration-time profiles on the multi-MPS platform; assay type: in vitro ADME, human; conditions: Gut only arm
[2] = fixed model parameter, same value in all arms; cited from earlier work
[3] = system: liver MPS (human primary cryopreserved hepatocytes and Kupffer cells); assay: Intrinsic metabolic clearance of the liver MPS on the multi-MPS platform; assay type: in vitro ADME; conditions: posterior mean (SD)
[4] = as above; assay type: in vitro ADME, human; conditions: human
[5] = LiverChip technology; cited from earlier work

O=C(O)Cc1ccccc1Nc1c(Cl)cccc1Cl [DCF, diclofenac]
intracellular accumulation in liver MPS (Kp, cells vs liver compartment medium) (liver MPS cells): substantial | Clintl (human hepacyte cultures): 17.8 μL/min/10^6 cells | time at which concentration-time profiles reach a plateau ([1]; after the dose): approximately 24 hours | fum (DCF fraction unbound in circulating common medium) [2]: 0.13 | CLintl (intrinsic metabolic DCF clearance of the liver MPS) ([3]; Gut / Liver arm, 40 μM DCF to gut apical side): 10.18 (0.46) μL/min | CLintl (intrinsic metabolic DCF clearance of the liver MPS) ([3]; Liver only arm, 40 μM DCF to mixing chamber): 8.99 (0.20) μL/min | hepatocyte CLint at 40 μM [4]: 17 µL/min/1e6 cells | non-specific binding to PSF [5]: absence of non-specific binding

O=C(O)Cc1ccccc1Nc1c(Cl)cc(O)cc1Cl [4-OH-DCF, 4-hydroxy-diclofenac]
intracellular accumulation in liver MPS (Kp, cells vs liver compartment medium) (liver MPS cells): substantial | 4-OH-DCF levels (mixing chamber concentration) ([1]; after 40 μM DCF dose): < 0.05 µM
